Values joined by “and” are separate entries in the source; they are usually repeats but may differ in a detail not shown here. Identical values can stand only once.
Key:
NANOG = assay: Pluripotency protein expression in re-isolated CD34+ cells, mAb staining and flow cytometry; assay type: cell-based, human; conditions: 7 days
Protocol: (§1) PCs and re-isolated, cultured CD34+ cells from control cultures and cultures containing VPA were fixed with methanol-free formaldehyde (2.8%) for 10 minutes at 37° C., briefly chilled on ice, and permeabilized with 100% ice-cold methanol. Cells were further incubated on ice for 20 minutes and blocked with incubation buffer (PBS containing 0.5% BSA) for 10 minutes and stained for SOX2 and OCT4 with an FITC-conjugated mAb or isotype controls for an hour at room temperature. Cells were also stained with a rabbit mAb for NANOG, followed by an FITC-conjugated anti-rabbit secondary antibody, and cells were washed and analyzed by flow cytometry.

OCT4 = assay: as above; assay type: cell-based, human; conditions: 7 days
Protocol: as §1

SOX2 = assay: as above; assay type: cell-based, human; conditions: 7 days
Protocol: as §1

NSG mice [1] = assay type: in vivo
Protocol: As described previously, NSG mice were sublethally irradiated with 300 cGy 4 hours prior to the infusion of PCs (2×10^5), and CD34+ cells re-isolated after a week of culture under control conditions or cultures containing VPA in the presence or absence of cytokines were injected into NSG mice via the tail vein (Milhem et al., “Modification of Hematopoietic Stem Cell Fate by 5aza 2′deoxycytidine and Trichostatin A,” Blood 103:4102-4110 (2004); Araki et al., “Expansion of Human Umbilical Cord Blood SCID-Repopulating Cells Using Chromatin-Modifying Agents,” Exp. Hematol. 34:140-149 (2006); Araki et al., “Chromatin-Modifying Agents Permit Human Hematopoietic Stem Cells to Undergo Multiple Celt Divisions While Retaining Their Repopulating Potential,” Blood 109:3570-3578 (2007), which are hereby incorporated by reference in their entirety). […] BM cells from each mouse were analyzed for the presence of cells expressing human CD45-PECy7 or APC, CD34-APC or FITC, CD36-APC, CD33-PECy7, CD14-FITC, CD19-PE, CD41-FITC, CD71-FITC, and glycophorin A-PE (GPA-PE). The presence of at least 0.1% human CD45+ cells in the marrow of each recipient mouse was considered indicative of donor human hematopoietic engraftment (Milhem et al., “Modification of Hematopoietic Stem Cell Fate by 5aza 2′deoxycytidine and Trichostatin A,” Blood 103:4102-4110 (2004); Araki et al., “Expansion of Human Umbilical Cord Blood SCID-Repopulating Cells Using Chromatin-Modifying Agents,” Exp. Hematol. 34:140-149 (2006); Araki et al., “Chromatin-Modifying Agents Permit Human Hematopoietic Stem Cells to Undergo Multiple Cell Divisions While Retaining Their Repopulating Potential,” Blood 109:3570-3578 (2007); Chaurasia et al., “Chromatin-Modifying Agents Promote the Ex vivo Production of Functional Human Erythroid Progenitor Cells,” Blood 117:4632-4641 (2011), which are hereby incorporated by reference in their entirety). BM cells (2×10^6) from the primary recipient NSG mice were reinfused into sublethally irradiated secondary NSG recipient mice. Mice were sacrificed 15-16 weeks after transplantation, and BM cells were stained with mAbs and analyzed by flow cytometry for evidence of human chimerism as described above.

HDAC1 = assay: HDAC protein levels in CB-MNCs, Western blot densitometry; assay type: cell-based, human; conditions: 24 hr, SCR 8 μM, C433 80 μM, VPA 1.25 mM
HDAC2 = assay: as above; assay type: cell-based, human; conditions: 24 hr, SCR 8 μM, C433 80 μM, VPA 1.25 mM
HDAC4 = assay: as above; assay type: cell-based, human; conditions: 24 hr, SCR 8 μM, C433 80 μM, VPA 1.25 mM
Description: (§2) Cellular proteins were separated by SDS-PAGE using Novex (Invitrogen) and transferred by iBlot (Invitrogen). The membranes were probed with mAbs against individual histone deacetylases (HDAC1, HDAC2, HDAC3, HDAC4, HDAC5, HDAC6, and β-actin; Cell Signaling Technology) and developed using a chemiluminescence system with HRP-conjugated secondary antibodies (Amersham Biosciences) according to the manufacturer's instructions.

hTERT = assay: qPCR of pluripotency genes in CD34+ cells; assay type: cell-based, human; conditions: VPA-treated CD34+ cells
Protocol: Total RNA was extracted from the human ES cell line 89 (WA09; WiCell Research Institute Inc., Madison, Wis., USA), PCs, reisolated CD34+ cells from control cultures or cultures containing VPA in SF and SC media using TRIzol and an RNeasy kit from QIAGEN, CA. Total RNA (0.5-1.0 μg) was reverse transcribed into cDNA using an RNA to cDNA EcoDry Premix kit (Clontech). The primer sequences are listed in Table 6. qPCR was performed using SYBR Green (Thermo Fisher Scientific) and the Realplex thermocycler (Eppendorf). All experiments were performed in triplicate, and non-template controls (lacking cDNA template were included in each assay. GAPDH served as an internal standard. The amplicons were run on a 2% agarose gel with a 50-bp-size (DNA ladder) marker.

NSG mice [2] = assay: Limiting dilution analysis of SCID-repopulating cells (SRC) in NSG mice; assay type: in vivo; conditions: for No. of mice with human cell chimerism/total number of mice transplanted: 12 to 13 weeks
Protocol: The frequency of human SRCs in PCs and the progeny of an equivalent number of CD34+ cells that were expanded under control conditions or in the presence of VPA were analyzed by limiting dilution analysis as described previously (Boitano et al., “Aryl Hydrocarbon Receptor Antagonists Promote the Expansion of Human Hematopoietic Stem Cells,” Science 329:1345-1348 (2010), which is hereby incorporated by reference in its entirety). Increasing numbers of PCs (50, 250, 500, 2,500, 5,000) or the progeny of an equivalent number of PCs cultured with VPA for 7 days or under control conditions were infused into NSG mice (n=111). The data from the limiting dilution experiments were pooled and analyzed by applying Poisson statistics to the single-hit model (n=111). The frequency was calculated using L-Calc software (StemCell Technologies Inc.) and plotted using ELDA software (bioinf.wehi.edu.au/software/elda/), available at the Walter and Eliza Hall Bioinformatics Institute of Medical Research. The tog fraction of non-responding values was converted to the percentage of negative mice using the following formula: percentage of negative mice=e log fraction.

HDAC3 = assay: HDAC protein levels in CB-MNCs, Western blot densitometry; assay type: cell-based, human; conditions: 24 hr, SCR 8 μM, C433 80 μM, VPA 1.25 mM
Description: as §2

[3] = VPA alone (no cytokines), SF, 12-13 weeks
[4] = cells cultured with cytokines plus VPA, SF, 13-14 weeks after transplantation

CCCC(CCC)C(=O)O [VPA, valproic acid]
percentage of CD34+ cells expressing NANOG (NANOG; SC cultures): 5.6 ± 1.4^A %
percentage of CD34+ cells expressing NANOG (NANOG; SF cultures): 57.6 ± 6.8^A %
percentage of CD34+ cells expressing OCT4 (OCT4; SC cultures): 8.2 ± 1.7^A %
percentage of CD34+ cells expressing OCT4 (OCT4; SF cultures): 32.9 ± 3.8^A %
percentage of CD34+ cells expressing SOX2 (SOX2; SC cultures): 3.9 ± 1.9^A %
percentage of CD34+ cells expressing SOX2 (SOX2; SF cultures): 23.1 ± 6.5^A %
% Human Cell Engraftment in Primary NSG Mice, CD14 (NSG mice [1]; [3]): 2.1 ± 0.2 %
% Human Cell Engraftment in Primary NSG Mice, CD19 (NSG mice [1]; [3]): 1.9 ± 1.1%
% Human Cell Engraftment in Primary NSG Mice, CD33 (NSG mice [1]; [3]): 3.5 ± 0.6 %
% Human Cell Engraftment in Primary NSG Mice, CD34 (NSG mice [1]; [3]): 1.6 ± 0.4 %
% Human Cell Engraftment in Primary NSG Mice, CD41 (NSG mice [1]; [3]): 0.90 ± 0.6%
% Human Cell Engraftment in Primary NSG Mice, CD45 (NSG mice [1]; [3]): 12.5%±5.0% and 12.5 ± 2.2%
% Human Cell Engraftment in Primary NSG Mice, GPA (NSG mice [1]; [3]): 9.8 ± 0.8%
CD45+CD34+ cells in marrow of primary NSG mice (NSG mice [1]; [4]): 13.0%±8.7%
human CD45+ cell chimerism in marrow of primary NSG mice (NSG mice [1]; [4]): 32.2%±11.3% and 32.3±10.2%
donor-derived CD34+ cells coexpressing CD184 in marrow (NSG mice [1]; cells cultured with cytokines plus VPA, SF, primary NSG mice): 9.9%±9.6%
blood cancer or teratomas in primary or secondary recipients (NSG mice [1]; mouse, in vivo): None of the primary or secondary recipients of marrow cells receiving VPA-treated grafts developed evidence of blood cancer or developed teratomas
HDAC1 expression relative to b-ACTIN (%) (HDAC1): 25.48 ± 7.78%
HDAC2 expression relative to b-ACTIN (%) (HDAC2): 45.8 ± 25.2%
HDAC4 expression relative to b-ACTIN (%) (HDAC4): 30.5 ± 9.3%
hTERT expression (hTERT): not upregulated
No. of SRCs generated per 1 × 10^6 CD34+ starting cells (NSG mice [2]; Poisson statistics, VPA 7 days): 32,258
increase in the number of SRCs compared with cells cultured under control conditions (NSG mice [2]; VPA treatment versus control cultures): 299 fold
increase in the number of SRCs compared with PCs (NSG mice [2]; VPA treatment versus primary CB CD34+ cells): 36 fold
No. of mice with human cell chimerism/total number of mice transplanted (NSG mice [2]; progeny of 50 CD34+ cells): 8/10
No. of mice with human cell chimerism/total number of mice transplanted (NSG mice [2]; progeny of 250 CD34+ cells): 10/10
No. of mice with human cell chimerism/total number of mice transplanted (NSG mice [2]; progeny of 500 CD34+ cells): 8/8
No. of mice with human cell chimerism/total number of mice transplanted (NSG mice [2]; progeny of 2,500 CD34+ cells): 7/7
No. of mice with human cell chimerism/total number of mice transplanted (NSG mice [2]; progeny of 5,000 CD34+ cells): 7/7
HDAC3 expression relative to b-ACTIN (%) (HDAC3): 11.4 ± 12.4%

Source: US11261429B2, “Enriched and expanded human cord blood stem cells for treatment of hematological disorders” (ICAHN SCHOOL OF MEDICINE AT MOUNT SINAI, priority 2013, dated 2022)
